In patent US20060287247A1, “Halogen-substituted thienyl compounds” (priority 2001, published 2006):
≈ marks a conversion by molar mass, not a printed value. Read-outs that look alike come from different tables or passages of the source.

Assays:
[1] = tested on: E. coli ATCC 25922; experiment: NCCLS broth microdilution MIC; type: cell-based; conditions: for MIC: Escherichia coli
Procedure: (§1) Compounds according to this invention were screened for their in vitro activities against selected species of bacteria and fungi. The minimal inhibition concentration (MIC) of these compounds was determined using the National Committee for Clinical Laboratory Standards (NCCLS) broth microdilution assay in microtiter plates, as set forth in: (1) the guidelines of the National Committee for Clinical Laboratory Standards (NCCLS) Document M7-A4 (NCCLS, 1997); (2) the guidelines of the National Committee for Clinical Laboratory Standards (NCCLS) Document M11-A4 (NCCLS, 1997); and (3) the guidelines and reference method of the National Committee for Clinical Laboratory Standards (NCCLS) Document M27-T (NCCLS, 1995). For antifungal essays, the method recommended in Murray, P R., 1995 Manual of Clinical Microbiology (ASM Press, Washington, D.C.), was employed. […]

[2] = tested on: S. pneumoniae ATCC 49619; experiment: NCCLS broth microdilution MIC; type: cell-based, Streptococcus pneumoniae; conditions: for MIC: Streptococcus pneumoniae
Procedure: as §1

[3] = tested on: C. albicans ATCC 38247; experiment: NCCLS broth microdilution MIC (antifungal); type: cell-based; conditions: E = C. albicans ATCC 38247
Procedure: as §1

[4] = tested on: B. cereus ATCC 11778; experiment: NCCLS broth microdilution MIC; type: cell-based, Bacillus cereus; conditions: for MIC: Bacillus cereus
Procedure: as §1

[5] = tested on: E. faecalis ATCC 29212; experiment: NCCLS broth microdilution MIC; type: cell-based, Enterococcus faecalis; conditions: for MIC: Enterococcus faecalis
Procedure: as §1

[6] = tested on: S. aureus ATCC 29213; experiment: NCCLS broth microdilution MIC; type: cell-based, Staphylococcus aureus; conditions: for MIC: Staphylococcus aureus
Procedure: as §1

[7] = ATCC25922, D = E. coli ATCC 25922, read-out: Minimum Inhibitory Concentration (MIC)
[8] = ATCC49619, F = S. pneumoniae ATCC 49619, read-out: Minimum Inhibitory Concentration (MIC)
[9] = ATCC11778, C = B. cereus ATCC 11778, read-out: Minimum Inhibitory Concentration (MIC)
[10] = ATCC29212, B = E. faecalis ATCC 29212, read-out: Minimum Inhibitory Concentration (MIC)

Compound	Minimum Inhibitory Concentration (MIC) ([1]; D = E. coli ATCC 25922)	Minimum Inhibitory Concentration (MIC) ([2]; F = S. pneumoniae ATCC 49619)	Minimum Inhibitory Concentration (MIC) [3]	Minimum Inhibitory Concentration (MIC) ([4]; C = B. cereus ATCC 11778)	Minimum Inhibitory Concentration (MIC) ([5]; B = E. faecalis ATCC 29212)	Minimum Inhibitory Concentration (MIC) ([6]; A = S. aureus ATCC 29213)	other results
Cn1cc(NC(=O)c2cc(NC(=O)CCNC(=O)c3cc(NC(=O)c4cc(NC(=O)c5cc(Br)c(Br)s5)cn4C)cn3C)cn2C)cc1C(=O)NCCC(=O)NCCCN1CCNCC1 [Id-13]	>32 µg/mL	>32 µg/mL	>32 µg/mL	>32 µg/mL	>32 µg/mL	>32 µg/mL	–
Cn1cc(NC(=O)c2cc(NC(=O)CCNC(=O)c3cc(NC(=O)c4cc(NC(=O)c5cc(Br)c(Br)s5)cn4C)cn3C)cn2C)cc1C(=O)NCCC(=O)NCCCCN [Id-8]	>32 µg/mL	+++ (+++ = MIC ≦4)	>32 µg/mL	>32 µg/mL	+++ (+++ = MIC ≦4)	>32 µg/mL	–
CN(C)CCCNC(=O)CCNC(=O)c1cc(NC(=O)c2cc(NC(=O)CCNC(=O)c3cc(NC(=O)c4ccc(Cl)s4)cn3C)cn2C)cn1C [Id-29]	–	>32 µg/mL	>32 µg/mL	–	>32 µg/mL	>32 µg/mL	–
Cn1cc(NC(=O)c2cc(NC(=O)CCNC(=O)c3cc(NC(=O)c4cc(NC(=O)c5cc(Br)c(Br)s5)cn4C)cn3C)cn2C)cc1C(=O)NCCC(=O)NCCCN [Id-9]	>32 µg/mL	+++ (+++ = MIC ≦4)	>32 µg/mL	+++ (+++ = MIC ≦4)	+++ (+++ = MIC ≦4)	+++ (+++ = MIC ≦4)	–
CN(C)CCN(C)C(=O)CCNC(=O)c1cc(NC(=O)c2cc(NC(=O)CCNC(=O)c3cc(NC(=O)c4cc(NC(=O)c5cc(Br)c(Br)s5)cn4C)cn3C)cn2C)cn1C [Id-10]	>32 µg/mL	+++ (+++ = MIC ≦4)	>32 µg/mL	>32 µg/mL	>32 µg/mL	>32 µg/mL	–
CN(C)CCCNC(=O)CCNC(=O)c1cc(NC(=O)c2cc(NC(=O)CCNC(=O)c3cc(NC(=O)c4cc(NC(=O)c5sc(Br)c(Br)c5Cl)cn4C)cn3C)cn2C)cn1C [Id-26]	–	+ (+ = MIC from 12 to 32, inclusive)	>32 µg/mL	–	>32 µg/mL	>32 µg/mL	–
CN(C)CCCNC(=O)CCNC(=O)c1cc(NC(=O)c2cc(NC(=O)CCNC(=O)c3cc(NC(=O)c4cscc4Cl)cn3C)cn2C)cn1C [Id-28]	–	+++ (+++ = MIC ≦4)	>32 µg/mL	–	+ (+ = MIC from 12 to 32, inclusive)	+++ (+++ = MIC ≦4)	–
Cn1cc(NC(=O)c2cc(NC(=O)c3ccc(NC(=O)c4nc(NC(=O)c5sccc5Cl)cn4C)cc3)cn2C)cc1C(=O)NCCN1CCC(F)(F)CC1 [Ih-2]	–	–	–	–	–	–	MIC [1, 7]: > 32 µg/mL; MIC [2, 8]: < 4 µg/mL; MIC ([3]; Candida albicans, ATCC38247, read-out: Minimum Inhibitory Concentration (MIC)): > 32 µg/mL; MIC [4, 9]: > 32 µg/mL; MIC [5, 10]: < 4 µg/mL
Cn1cc(NC(=O)c2cc(NC(=O)c3nc(NC(=O)c4scc(Br)c4Cl)cn3C)cn2C)cc1C(=O)NCCN1CCSCC1 [Ig-10]	>32 µg/mL	+++ (+++ = MIC ≦4)	>32 µg/mL	+++ (+++ = MIC ≦4)	+++ (+++ = MIC ≦4)	–	–
CC1COc2c(N3CCN(C)CC3)c(F)cc3c(=O)c(C(=O)O)cn1c23 (stereo not shown) [Ofloxacin, reference compound]	–	–	–	–	–	–	MIC [1, 7]: < 4 µg/mL; MIC [2, 8]: < 4 µg/mL; MIC [4, 9]: < 4 µg/mL; MIC ([6]; ATCC29213, A = S. aureus ATCC 29213, read-out: Minimum Inhibitory Concentration (MIC)): < 4 µg/mL; MIC [5, 10]: 4 to 12 µg/mL (≈ 11.1 to 33.2 µM)
Cn1cc(NC(=O)c2cc(NC(=O)c3cc(NC(=O)c4sccc4Cl)cn3CCCO)cn2C)cc1C(=O)NCCC(=O)NCCN1CCOCC1 [Ig-2]	–	>32 µg/mL	>32 µg/mL	–	>32 µg/mL	>32 µg/mL	–
Cn1cc(NC(=O)c2cc(NC(=O)CNC(=N)N)cn2C)cc1C(=O)NCCC(=N)N [Netropsin, netropsin, reference compound]	–	–	–	–	–	–	MIC ([1]; ATCC25922, read-out: Minimum Inhibitory Concentration (MIC)): < 4 µg/mL; MIC ([2]; ATCC49619, read-out: Minimum Inhibitory Concentration (MIC)): < 4 µg/mL; MIC ([4]; ATCC11778, read-out: Minimum Inhibitory Concentration (MIC)): < 4 µg/mL; MIC ([6]; ATCC29213, read-out: Minimum Inhibitory Concentration (MIC)): < 4 µg/mL; MIC ([5]; ATCC29212, read-out: Minimum Inhibitory Concentration (MIC)): < 4 µg/mL

Further lines, with some results ahead:

Minimum Inhibitory Concentration (MIC) ([1]; D = E. coli ATCC 25922)	Minimum Inhibitory Concentration (MIC) ([2]; F = S. pneumoniae ATCC 49619)	Minimum Inhibitory Concentration (MIC) [3]	Minimum Inhibitory Concentration (MIC) ([4]; C = B. cereus ATCC 11778)	Minimum Inhibitory Concentration (MIC) ([5]; B = E. faecalis ATCC 29212)	Minimum Inhibitory Concentration (MIC) ([6]; A = S. aureus ATCC 29213)	Compound	other results
>32 µg/mL	+++ (+++ = MIC ≦4)	>32 µg/mL	+++ (+++ = MIC ≦4)	+++ (+++ = MIC ≦4)	–	Cn1cc(NC(=O)c2cc(NC(=O)c3cc(NC(=O)c4cc(NC(=O)c5sccc5Cl)cn4C)cn3C)cn2C)cc1C(=O)NCCN1CCOCC1 [Ie-12]	–
>32 µg/mL	+++ (+++ = MIC ≦4)	>32 µg/mL	+++ (+++ = MIC ≦4)	+++ (+++ = MIC ≦4)	–	Cn1cc(NC(=O)c2cc(NC(=O)c3cc(NC(=O)c4scc(Br)c4Cl)cn3C)cn2C)cc1C(=O)NCCN1CCSCC1 [Ie-14]	–
>32 µg/mL	+++ (+++ = MIC ≦4)	>32 µg/mL	+++ (+++ = MIC ≦4)	+++ (+++ = MIC ≦4)	+++ (+++ = MIC ≦4)	Cn1cc(NC(=O)c2cc(NC(=O)c3cc(NC(=O)c4sccc4Cl)cn3C)cn2C)cc1C(=O)NCCN1CCOCC1 [Ie-6]	–
–	+++ (+++ = MIC ≦4)	>32 µg/mL	–	+++ (+++ = MIC ≦4)	+++ (+++ = MIC ≦4)	Cn1cc(NC(=O)c2cc(NC(=O)c3cc(NC(=O)c4sccc4Br)cn3C)cn2C)cc1C(=O)NCCN1CCOCC1 [Ie-2]	–
–	+++ (+++ = MIC ≦4)	>32 µg/mL	–	>32 µg/mL	++ (++ = MIC between 4 and 12)	Cn1cc(NC(=O)c2cc(NC(=O)c3cc(NC(=O)c4cc(Br)cs4)cn3C)cn2C)cc1C(=O)NCCN1CCOCC1 [Ie-3]	–
–	++ (++ = MIC between 4 and 12)	>32 µg/mL	–	+++ (+++ = MIC ≦4)	+++ (+++ = MIC ≦4)	Cn1cc(NC(=O)c2cc(NC(=O)c3cc(NC(=O)c4sccc4Cl)cs3)cn2C)cc1C(=O)NCCN1CCOCC1 [Ig-1]	–
–	+++ (+++ = MIC ≦4)	>32 µg/mL	–	+++ (+++ = MIC ≦4)	+++ (+++ = MIC ≦4)	CC(C)S(=O)(=O)c1csc(C(=O)Nc2csc(C(=O)Nc3cc(C(=O)Nc4cc(C(=O)NCCN5CCOCC5)n(C)c4)n(C)c3)c2)c1Cl [Ig-4]	–
–	+++ (+++ = MIC ≦4)	>32 µg/mL	–	+++ (+++ = MIC ≦4)	+++ (+++ = MIC ≦4)	Cn1cc(NC(=O)c2cc(NC(=O)c3cc(NC(=O)c4sccc4F)cs3)cn2C)cc1C(=O)NCCN1CCOCC1 [Ig-5]	–
+ (+ = MIC from 12 to 32, inclusive)	+++ (+++ = MIC ≦4)	+ (+ = MIC from 12 to 32, inclusive)	+++ (+++ = MIC ≦4)	+++ (+++ = MIC ≦4)	–	Cn1cc(NC(=O)c2cc(NC(=O)c3cc(NC(=O)c4scc(Br)c4Cl)cn3C)cn2C)cc1C(=O)NCCN1CCCCC1 [Ie-15]	–
>32 µg/mL	+++ (+++ = MIC ≦4)	>32 µg/mL	+++ (+++ = MIC ≦4)	+++ (+++ = MIC ≦4)	–	Cn1cc(NC(=O)c2cc(NC(=O)c3cc(NC(=O)c4sccc4Cl)cn3C)cn2C)cc1C(=O)NCCN1CCC(F)CC1 [Ie-13]	–
